Data on one molecule can be found in publication PMC11579209, “Population pharmacokinetics and exposure–response relationships of maribavir in transplant recipients with cytomegalovirus infection” (Journal of Pharmacokinetics and Pharmacodynamics, 2024).

A short description of data set [1]: Population pharmacokinetic (PopPK) model (NONMEM), pooled maribavir plasma concentration–time data from phase 1, 2 and 3 studies. In kind it is in vivo, human. The procedure: A PopPK model was developed using non-linear mixed effects modeling (NONMEM) (v7.4.3) with pooled maribavir plasma concentration–time data from 667 participants in nine phase 1 studies (n = 182, single or repeated doses of 100, 200 or 400 mg), two phase 2 studies (NCT01611974, EudraCT 2010-024247-32, 400, 800, and 1200 mg BID), and one phase 3 study (SOLSTICE, NCT02931539, 400 mg BID; phase 2 and 3 combined: n = 485). The final PopPK analysis dataset comprised data from individuals who had received at least one dose of maribavir and had at least one quantifiable post-dose concentration. This model was used to describe the time course of maribavir plasma concentrations in healthy volunteers, participants with hepatic or renal impairment, stable renal transplant patients, and hematopoietic cell transplant (HCT) or solid organ transplant (SOT) recipients with CMV infection, including those with refractory CMV infection.
One- (ADVAN2 TRANS2), two- (ADVAN4 TRANS4), and three (ADVAN12 TRANS4)-compartment models with first-order absorption, an absorption lag time, and linear clearance were initially investigated. The NONMEM control stream for the final model can be found in the Supplementary Methods S1 of the Supplementary Material 1. […] Consequently, the effects of co-administration of strong CYP3A4 inhibitors and strong CYP3A4 inducers were considered for inclusion in the base model. The effect of body weight (scaled to 70 kg) on both clearance and volume terms was also considered for inclusion in the base model.
Structural and variance model parameters were estimated for the base model, and inter-individual variability (IIV) was included on all structural parameters. Runs with untransformed data were used to test the residual error models. Plots of weighted residuals were evaluated for homoscedasticity with respect to predictions and time since dose, and the structure of the base model was expanded as necessary to best reflect the characteristic shape of the observations over time. Dose and time dependency were explored for PK model parameters. Parameter estimation was performed using Monte Carlo Importance Sampling Expectation Maximization assisted by Mode a Posteriori, with MU referencing (where THETAs that define typical values of individual parameters, and are associated with random effects, are referenced in a PHI/MU format) to improve the efficiency of computations. The impact of post-dose observations below the lower limit of quantification (BLQ) was assessed in initial models by implementing the M3 method, which maximizes the likelihood for all the data treating BLQ observations as censored. The performance of the final PopPK model was evaluated using a confidence interval prediction-corrected visual predictive check (CI-pcVPC) method. In addition, the percentage of observations outside the overall 5th and 95th percentiles of the predicted data was calculated.
Strong CYP3A4 inhibitors and inducers, as well as weight, were included in the base model.
Continuous covariates were obtained from observations on the first day of dosing, or at screening if this value was not available. […] Categorical covariates were tested and incorporated in the model as a series of index variables taking on values of zero or one.
The full model with backwards deletion approach was used for covariate modeling, with all covariate parameter relationships of interest entered into the model simultaneously. Highly correlated covariates were tested one at a time to avoid confounding in the estimation of covariate effects. A backwards deletion was carried out at the p = 0.001 significance level. The order of removal was based on the relative standard error and 95% confidence interval (CI) of the parameter estimate.

Details of data set [2]: method as in PMID 38009271. As to conditions: concurrent rifampin; cited from earlier work.
For data set [3], the system named is Cytochrome P450 (CYP) 3A4. Details: method as in PMID 12654667, doi:10.1016/j.bbmt.2018.12.600. As to conditions: formation of VP44469; cited from earlier work.
The mark [4] stands for this setting: reference: 70-kg individual without CMV, 800 mg.

On to `CC(C)Nc1nc2cc(Cl)c(Cl)cc2n1[C@H]1O[C@@H](CO)[C@H](O)[C@@H]1O` [maribavir], for which, in data set [1] (final PopPK model), the “CL/F higher in the presence of strong CYP3A4 inducers” value is recorded as 2.24 fold; the “CL/F lower in the presence of strong CYP3A4 inhibitors” value worked out at 30%; the “CL/F ~ CYP3A strong inducers, covariate estimate” value is recorded as 2.24; the “CL/F ~ CYP3A strong inhibitors, covariate estimate” value is 0.700. In addition, the “CL/F ~ transplant patients with CMV, covariate estimate” value in data set [1] (final PopPK model) is 0.756. For the same molecule, in data set [1] (human, in vivo), the “CL/F lower for transplant recipients with CMV infection than for all other individuals” value is given as 24%. Besides, in data set [1] (setting [4]), the “Ka (first-order absorption), PopPK estimate” value was 0.336 h^–1; the “Lag-time, PopPK estimate” value is given as 0.271 h; the “Q/F (inter-compartment clearance), PopPK estimate” value is listed as 0.908 L/h; the “Vc/F (apparent volume of central compartment), PopPK estimate” value is recorded as 18.6 L. Further, the “Vp/F (apparent volume of peripheral compartment), PopPK estimate” value in data set [1] (setting [4]) was 8.66 L. Besides, in data set [1] (reference: 70-kg individual without CMV, 800 mg maribavir, no CYP3A strong inhibitors or inducers), the “CL/F (apparent total clearance), PopPK estimate” value is 3.77 L/h. Also, in data set [2], the “Increase in maribavir clearance” value is given as 2.5 fold, the “Reduction in maribavir AUC” value is given as 60% and the “Reduction in maribavir half-life” value is 30%. For the same molecule, the “Share of CYP-mediated metabolism by CYP3A4” value in data set [3] is reported as 70–85%.
